From patent US20230346281A1, “Fully Printed Electrode Biological Interface” (Early Charm Ventures, priority 2022, published 2023)

System: HepG2 hepatocytes tissue layers
Assay: Live cell viability / CEIS recordings in the presence of a cytotoxic agent (EtOH)
Assay type: cell-based, human
Settings: 12 hour exposure to EtOH (70% final); HEPG2 2 million cells/mL with PEG-PLL (1:10) hydrogel
Description: A toxicological agent, Ethanol (EtOH) was used as a clinically relevant cytotoxic agent for the HepG2 hepatocytes tissue layers, HEPG2 (2 million cells/mL) with PEG-PLL (1:10) hydrogel. CEIS recordings were obtained at 1 hour and 24 hours post deposition with and without the cytoxic agent, Table 3. A final CEIS recording was obtained from these cells following a 12 hour exposure to EtOH (70% final). A marked increase in amplitude with additional recovery time post deposition (1 vs 24 hours).

CCO [EtOH, Ethanol]
amplitude of CEIS recordings: increased the observed amplitude of CEIS recordings
